Tests used:
Assay type in all cases: cell-based
[1] = tested on: T24 bladder cancer cells; test: Cancer cell survival (CellTiter-Glo), T24; details: Homo sapiens, 72 h, read-out: Cell survival at given concentration
Outline: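 T24 cells seeded at 4×10^3 cells/well overnight, then exposed 72 h at 37 C, 5% CO2 to nine concentrations in triplicate. Survival measured by CellTiter-Glo luminescence relative to untreated and medium controls; IC50 derived.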

[2] = tested on: Daudi lymphoma cancer cells; test: Cancer cell survival (CellTiter-Glo), Daudi; details: Homo sapiens, 72 h, read-out: Cell survival at given concentration
Outline: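 Daudi cells (4×10^3/well) were exposed for 72 h at 37 °C to nine concentrations of compound, added as 10× solutions spanning 1 μM–10 mM (fatty acids) or 100 nM–1 mM (others). CellTiter-Glo luminescence gave % survival versus untreated, medium-blank corrected; IC50 derived.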

[3] = tested on: MCF7 breast cancer cells; test: Cancer cell survival (CellTiter-Glo), MCF7; details: Homo sapiens, 72 h, read-out: Cell survival at given concentration
Outline: (§1)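 Log-phase cells are plated at 4×10^3 per well and incubated overnight. Compounds, prepared in media as 10× solutions, are then added and the plates held 72 h at 37 C. Viability is measured by CellTiter-Glo luminescence, and IC50 is derived from survival relative to untreated controls.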

[4] = tested on: HCT 116 colorectal cancer cells; test: Cancer cell survival (CellTiter-Glo), HCT 116; details: Homo sapiens, HCT 116 cells, 72 h, read-out: Cell survival at given concentration
Outline: as §1

[5] = tested on: A549 lung cancer cells; test: Cancer cell survival (CellTiter-Glo), A549; details: Homo sapiens, 72 h, read-out: Cell survival at given concentration
Outline: as §1

[6] = tested on: PC-3 prostate cancer cells; test: Cancer cell survival (CellTiter-Glo), PC-3; details: Homo sapiens, PC-3 cells, 72 h, read-out: Cell survival at given concentration
Outline: as §1

[7] = tested on: A-431 skin cancer cells; test: Cancer cell survival (CellTiter-Glo), A-431; details: Homo sapiens, A-431 cells, 72 h, read-out: Cell survival at given concentration
Outline: as §1

[8] = tested on: AGS stomach cancer cells; test: Cancer cell survival (CellTiter-Glo), AGS; details: 72 h
Outline: as §1

[9] = Human Regulatory T Cell Differentiation Assay; details: human, primary naïve CD4+ T cells isolated from PBMCs, read-out: Cell viability % DMSO
Procedure: Peripheral blood mononuclear cells (PBMCs) from whole blood donated by health volunteers were separated by Ficoll-Paque gradient centrifugation and naïve CD4^+ T cells were subsequently isolated using magnet beads (EasySep™ Human Naïve CD4^+ T Cell Isolation Kit, Cambridge, Mass.). For regulatory T cell (Treg) differentiation assay, naïve CD4^+ T cells were cultured (1-10×10^4 cells) in CTS OpTmizer medium for 6 days and stimulated with 5 ng/ml TGF-β, 100 U/ml IL-2, and ImmunoCult™ Human […] T Cell Activator; Stemcell #10990) with/without Compounds. Cell viability was determined using a viability dye (eBioscience Fixable Viability Dye eFluor 780: ThermoFisher 65-0865-14) at 1:500 dilution. The cells were gated for Treg, defined as Live, CD11c^−, CD14^−, CD19^−, CD8^−, CD4^+, CD3^+, CD25^+, FOXP3^+. Percent (%) Tregs were calculated as percentage of CD4^+, CD25^+, FOXP3^+ cells over total CD4^+ T cells. Statistical analysis was performed with GraphPad Prism Software Using One-Way ANOVA.

Work on O=C[C@H](O)[C@@H](O)[C@@H](O)CO [L-arabinose] yielded a viability at 0.101 µM ([1]; T-24, 101 nM) of 100%, a viability at 0.318 µM ([1]; T-24, 318 nM) of 103% and a viability at 1 µM ([1]; T-24, 1 μM) of 100%. The viability at 3 µM ([1]; T-24, 3 μM) was 103%, the viability at 10 µM ([1]; T-24, 10 μM) was 102% and the viability at 32 µM ([1]; T-24, 32 μM) was 105%. The viability at 100 µM ([1]; T-24, 100 μM) was 101%, the viability at 316 µM ([1]; T-24, 316 μM) was 101% and the viability at 1000 µM ([1]; T-24, 1000 μM) was 104%. It also gave a viability at 0.101 µM ([2]; 101 nM) of 100%, a viability at 0.318 µM ([2]; 318 nM) of 100% and a viability at 1 µM ([2]; 1 μM) of 100%. For the same molecule, the viability at 3 µM ([2]; 3 μM) was 99%, the viability at 10 µM ([2]; 10 μM) was 102% and the viability at 32 µM ([2]; 32 μM) was 102%. For the same molecule, the viability at 100 µM ([2]; 100 μM) was 103%, the viability at 316 µM ([2]; 316 μM) was 102% and the viability at 1000 µM ([2]; 1000 μM) was 102%. The viability at 0.101 µM ([3]; 101 nM) was 99%, the viability at 0.318 µM ([3]; 318 nM) was 101% and the viability at 1 µM ([3]; 1 μM) was 98%. The viability at 3 µM ([3]; 3 μM) was 101%, the viability at 10 µM ([3]; 10 μM) was 99% and the viability at 32 µM ([3]; 32 μM) was 101%. It also gave a viability at 100 µM ([3]; 100 μM) of 99%, a viability at 316 µM ([3]; 316 μM) of 98% and a viability at 1000 µM ([3]; 1000 μM) of 98%. For the same molecule, the viability at 0.101 µM ([4]; 101 nM) was 101%, the viability at 0.318 µM ([4]; 318 nM) was 101% and the viability at 1 µM ([4]; 1 μM) was 101%. It also gave a viability at 3 µM ([4]; 3 μM) of 103%, a viability at 10 µM ([4]; 10 μM) of 103% and a viability at 32 µM ([4]; 32 μM) of 104%. For the same molecule, the viability at 100 µM ([4]; 100 μM) was 104%, the viability at 316 µM ([4]; 316 μM) was 102% and the viability at 1000 µM ([4]; 1000 μM) was 99%. It also gave a viability at 0.101 µM ([5]; 101 nM) of 101%, a viability at 0.318 µM ([5]; 318 nM) of 103% and a viability at 1 µM ([5]; 1 μM) of 104%. It also gave a viability at 3 µM ([5]; 3 μM) of 102%, a viability at 10 µM ([5]; 10 μM) of 103% and a viability at 32 µM ([5]; 32 μM) of 103%. The viability at 100 µM ([5]; 100 μM) was 102%, the viability at 316 µM ([5]; 316 μM) was 102% and the viability at 1000 µM ([5]; 1000 μM) was 104%. The viability at 0.101 µM ([6]; 101 nM) was 103%, the viability at 0.318 µM ([6]; 318 nM) was 100% and the viability at 1 µM ([6]; 1 μM) was 100%. The viability at 3 µM ([6]; 3 μM) was 101%, the viability at 10 µM ([6]; 10 μM) was 103% and the viability at 32 µM ([6]; 32 μM) was 101%. It also gave a viability at 100 µM ([6]; 100 μM) of 100%, a viability at 316 µM ([6]; 316 μM) of 101% and a viability at 1000 µM ([6]; 1000 μM) of 100%. For the same molecule, the viability at 0.101 µM ([7]; 101 nM) was 103%, the viability at 0.318 µM ([7]; 318 nM) was 102% and the viability at 1 µM ([7]; 1 μM) was 102%. For the same molecule, the viability at 3 µM ([7]; 3 μM) was 103%, the viability at 10 µM ([7]; 10 μM) was 103% and the viability at 32 µM ([7]; 32 μM) was 105%. The viability at 100 µM ([7]; 100 μM) was 105%, the viability at 316 µM ([7]; 316 μM) was 105% and the viability at 1000 µM ([7]; 1000 μM) was 102%. The viability at 0.101 µM ([8]; 101 nM, read-out: Cell survival at given concentration) was 100%, the viability at 0.318 µM ([8]; 318 nM, read-out: Cell survival at given concentration) was 102% and the viability at 1 µM ([8]; 1 μM, Table 10.1, read-out: Cell survival at given concentration) was 101%. It also gave a viability at 3 µM ([8]; 3 μM, Table 10.1, read-out: Cell survival at given concentration) of 102%, a viability at 10 µM ([8]; 10 μM, Table 10.1, read-out: Cell survival at given concentration) of 102% and a viability at 32 µM ([8]; 32 μM, Table 10.1, read-out: Cell survival at given concentration) of 104%. The viability at 100 µM ([8]; 100 μM, Table 10.1, read-out: Cell survival at given concentration) was 105%, the viability at 316 µM ([8]; 316 μM, read-out: Cell survival at given concentration) was 102% and the viability at 1000 µM ([8]; 1000 μM, read-out: Cell survival at given concentration) was 101%. It also gave a viability at 6 days, 0.5 mM ([9]; 0.5 mM) of 90 to 110% and a viability at 6 days, 1 mM ([9]; 1 mM) of 90 to 110%.

Reference: patent publication US20210085640A1, “ACYLATED CATECHIN POLYPHENOLS AND METHODS OF THEIR USE FOR THE TREATMENT OF CANCER” (Flagship Pioneering Innovations V, Inc., priority 2018, published 2021)
